The source of these data is US4980287A, “4H-3,1-benzoxazin-4-one compounds and pharmaceutical compositions thereof for the inhibition of serine proteases” (Teijin Limited, priority 1987, dated 1990).

In data set [1] the target is T1, human purulent sputum elastase (Homo sapiens, UniProt P08246).
T1 construct: purchased Elastin Products Co; host or cells: human purulent sputum
T1 sequence (P08246 30-247 limits assumed): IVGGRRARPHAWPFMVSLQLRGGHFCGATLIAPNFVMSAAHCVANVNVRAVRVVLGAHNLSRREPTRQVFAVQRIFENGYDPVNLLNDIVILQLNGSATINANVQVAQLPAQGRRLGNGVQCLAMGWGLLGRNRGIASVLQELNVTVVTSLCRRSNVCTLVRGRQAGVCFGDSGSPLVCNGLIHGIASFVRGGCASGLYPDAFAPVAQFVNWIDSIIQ
The experiment in a line: Human purulent sputum elastase-inhibitory activity (hydrolysis of methoxysuccinyl-peptidyl-p-nitroanilide, absorbance at 410 nm). The format is biochemical. As to conditions: for IC50: Table 10, procedure of Example 19 (A). An excerpt: Human purulent sputum elastase is believed to be the same enzyme as human leukocyte elastase, as described by Tomashi et al. (J. BIOL. CHEM., vol. 252, pages 1917 to 1924 (1977)), and can be easily obtained commercially.
The extent of the hydrolysis of AAPVpNA by human purulent sputum elastase can be easily determined by measuring the amount of p-nitroaniline released from AAPVpNA, by a spectrophotometer. Then, by comparing the extent of hydrolysis of AAPVpNA by the human purulent sputum elastase in the absence of a compound to be tested with that in the presence of the compound to be tested in various concentrations, a concentration (IC50) of the compound to be tested necessary to inhibit 50% of the elastase reaction can be determined.
(§1) Inhibitory activities of 7-(N-carbobenzoxy-L-phenylalanyl)amino-2-isopropylamino-5-methyl-4H-3,1- benzoxazin-4-one for human purulent sputum elastase, for α-chymotrypsin, for cathepsin G, for trypsin, for thrombin and for plasmin were determined by the following methods and the results are shown in Table 9.
The testing buffer (pH7.5) consisted of 0.1M N-2-hyiroxyethylpiperazine-N'-2-ethanesulfonic acid, 1M sodium chloride and 0.1% w/v polyethylene glycol 6000.
Human purulent sputum elastase was obtained from Elastin Products Co., and adjusted to 1.5×10^-8 M in the testing buffer.
Methoxysuccinyl-[…]-p-nitroanilide was obtained from Bachem Co., and made to 10 mM in dimethyl sulfoxide.
Procedure To 2.4ml of testing buffer in a cell set at 37° in a spectrophotometer (Hitachi U-3200) with a temperature controlled cell holder were added 25 μl of substrate solution and 25 μl of acetonitrile with or without inhibitory compounds, and the resultant mixture was stirred. Reactions were initiated by addition of 50 μl of the enzyme solution and hydrolysis of the substrate was monitored by measuring a change of light absorbance at 410 nm. The concentration (IC50) at which 50% of the activity of human purulent sputum elastase was inhibited was determined for each inhibitory compound from a steady state velocity of the substrate hydrolysis.
(§2) In each of Examples 20 to 37 and Comparative Examples 1 to 4, the same experimental procedures as those described in Example 19, items (A) and (B) were used for determination of enzyme inhibitory activity, except that the compound indicated in Table 10 was tested as an inhibitory compound.

In data set [2] the target is T2, bovine pancreas α-chymotrypsin (Bos taurus, UniProt P00766).
T2 construct: bovine pancreas α-chymotrypsin; purchased Sigma Co; host or cells: bovine pancreas
The experiment in a line: α-chymotrypsin-inhibitory activity (hydrolysis of succinyl-Ala-Ala-Pro-Phe-p-nitroanilide). To be noted: for IC50 / Selectivity: Table 10; for IC50: procedure of Example 19 (B); for Selectivity: ratio of IC50 for bovine α-chymotrypsin to IC50 for human purulent sputum elastase. The format is biochemical. How it is done:
An in vitro test similar to that mentioned above can be applied to chymotrypsin.
As a chymotrypsin, α-chymotrypsin of bovine pancreas, which is readily available commercially, is used. […] The extent of the hydrolysis of AAPFpNA is measured in the absence of a compound to be tested or in the presence of the compound in various concentrations thereof, and thus a concentration (IC50) of the compound necessary to inhibit 50% of the enzyme reaction can be determined.
as §1
The same procedures as those described in the above item (A) for the human purulent sputum elastase were carried out, with the following exception.
The enzyme-testing tuffer solution contained 2×10^-8 M bovine pancreas α-chymotrypsin (available from Sigma Co.). The synthetic substrate was succinyl-L-alanyl-L-alanyl-L-prolyl-L-henylalanyl-p-nitroanilide (available from Bachem Co.).
An IC50 for the α-chymotrypsin was determined in the same manner as mentioned above. (C) Determination of human cathepsin G-inhibitory activity
as §2
In Table 10, the item "Selectivity" refers to a ratio of an IC50 value for bovine α-chymotrypsin to an IC50 value for human purulent sputum elastase. The larger the value of the ratio, the higher the selectivity of the inhibitory activity for elastase.

A further data set deals with T3, human thrombin (Homo sapiens, UniProt P00734).
T3 construct: human thrombin; purchased Daiichi Kagaku Yakuhin K.K
The experiment in a line: Thrombin-inhibitory activity. The format is biochemical. To be noted: Table 9. The protocol: as §1
The same procedures as those described in item (A) were carried out except that the enzyme-testing buffer solution contained 0.04 μkat/ml human thrombin (available from Daiichi Kagaku Yakuhin K.K.) and the substrate consisted of D-phenylalanyl-pipecolyl-arginyl-p-nitroanilide (available from Daiichi Kagaku Yakuhin K.K.).
An IC for the human thrombin was determined in the same manner as mentioned above.

For another data set, the target named is T4, human plasmin (Homo sapiens, UniProt P00747).
T4 construct: human plasmin; purchased Daiichi Kagaku Yakuhin K.K
The experiment in a line: Plasmin-inhibitory activity. It is filed as biochemical. To be noted: Table 9. The protocol:
as §1
The same procedures as those described in item (A) were carried out except that the enzyme testing buffer solution contained 0.6 CasU/ml human plasmin (available from Daiichi Kagaku Yakuhin K.K.) and the substrate consisted of D-valyl-L-leucyl-L-lysyl-p-nitro-anilide (available from Daiichi Kagaku Yakuhin K.K.).
An IC50 for the human plasmin was determined in the same manner as mentioned above.

A short description of data set [3]: Stability in human serum (37° C., HPLC peak area). The format is in vitro ADME. The protocol: A solution of […] of 7-(N-carbobenzoxy-L-phenylalanyl)amino-2-isopropylamino-5-methyl-4H-3,1-benzoxazin-4-one in 50 μl acetonitrile was mixed with 0.45 ml of human serum, and the resultant mixture was allowed to stand at a temperature of 37° C. The mixture was subjected to treatment with a Sep-pac C18 cartridge (trademark, made by Waters Cc.) for removal of protein, and a portion of the resultant acetonitrile-eluted fraction was subjected to a high speed liquid chromatographic analysis.

Setting [4] is: Table 9, ratio of IC50 for the protease to IC50 for human purulent sputum elastase.
Setting [5] is: ratio of IC50 for the protease to IC50 for human purulent sputum elastase.

T4 sequence (P00747 581-810 limits assumed): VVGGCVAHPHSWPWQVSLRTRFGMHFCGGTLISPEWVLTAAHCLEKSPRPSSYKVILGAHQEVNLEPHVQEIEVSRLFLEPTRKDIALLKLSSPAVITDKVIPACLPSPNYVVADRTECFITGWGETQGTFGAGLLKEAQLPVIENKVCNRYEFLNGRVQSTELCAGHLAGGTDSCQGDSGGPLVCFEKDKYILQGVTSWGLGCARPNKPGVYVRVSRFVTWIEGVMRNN
T4 sequence (P00747 97-580 partner limits assumed): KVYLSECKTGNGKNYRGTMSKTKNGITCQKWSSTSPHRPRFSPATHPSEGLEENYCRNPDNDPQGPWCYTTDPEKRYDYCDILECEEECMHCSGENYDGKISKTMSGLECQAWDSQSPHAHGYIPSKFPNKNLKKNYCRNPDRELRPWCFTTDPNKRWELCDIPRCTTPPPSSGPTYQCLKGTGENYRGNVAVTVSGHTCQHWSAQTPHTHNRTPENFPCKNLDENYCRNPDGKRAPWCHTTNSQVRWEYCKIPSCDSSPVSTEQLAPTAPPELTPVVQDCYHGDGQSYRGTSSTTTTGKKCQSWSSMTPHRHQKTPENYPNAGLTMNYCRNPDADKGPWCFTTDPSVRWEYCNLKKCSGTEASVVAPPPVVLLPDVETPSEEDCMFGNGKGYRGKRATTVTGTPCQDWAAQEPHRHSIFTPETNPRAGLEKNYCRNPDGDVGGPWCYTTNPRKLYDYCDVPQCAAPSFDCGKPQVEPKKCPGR

As usually defined, the IC50 is the concentration needed to halve the response being measured. A high value points to weaker potency. The compound `Cc1cccc2nc(OC(C)C)oc(=O)c12` [compound 4, reference compound] showed an IC50 in data set [1] of 41 nM. Besides, in data set [2], the IC50 worked out at 120 nM and the Selectivity was determined as 2.9.
`CC(C)Oc1nc2cc(NC(=O)[C@@H]3CCCN3C(=O)OCc3ccccc3)ccc2c(=O)o1` [Example 21, 7-(N-carbobenzoxy-L-prolyl)amino-2-isopropoxy-4H-3,1-benzoxazin-4-one]: the IC50 came out at 44 nM in data set [1] and 170 nM in data set [2]. Further, the Selectivity in data set [2] was found to be 3.9.
For `CC(=O)Nc1ccc2c(=O)oc(OC(C)C)nc2c1` [compound 3, reference compound] the same measures were 58 nM, 32 nM and 0.55.
The term half-life denotes how long it takes for the measured level to halve. A higher half-life goes with slow loss. Regarding `Cc1cc(NC(=O)[C@H](Cc2ccccc2)NC(=O)OCc2ccccc2)cc2nc(NC(C)C)oc(=O)c12` [Example 36, 7-(N-carbobenzoxy-L-phenylalanyl)amino-5-methyl-2-isopropylamino-4H-3,1-benzoxazin-4-one], in data set [1] (setting [4]), the “Selectivity, human purulent sputum elastase” value is 1. Besides, the IC50 was 1.3 nM in data set [1], 25 nM in data set [2], greater than 100000 nM at human thrombin (0.04 μkat/ml enzyme) and 75000 nM on human plasmin (0.6 CasU/ml enzyme). Also, the “Selectivity, bovine pancreas α-chymotrypsin” value in data set [2] (setting [4]) was 19. Also, the Selectivity in data set [2] was 19. Further, the “Selectivity, human thrombin” value on human thrombin (setting [5]) is > 100,000. The “Selectivity, human plasmin” value at human plasmin (setting [5]) is given as 58,000. In addition, the half-life in data set [3] was determined as 2.5 h.
In turn, `Cc1cc(NC(=O)[C@H](Cc2ccccc2)NC(=O)OCc2ccccc2)cc2nc(OC(C)C)oc(=O)c12` [Example 34, 7-(N-carbobenzoxy-L-phenylalanyl)amino-2-isopropoxy-5-methyl-4H-3,1-benzoxazin-4-one] gave an IC50 in data set [1] of 0.55 nM. Moreover, in data set [2], the IC50 worked out at 10 nM and the Selectivity is recorded as 18.
On to `CC(C)Oc1nc2cc(NC(=O)[C@H](C)NC(=O)OCc3ccccc3)ccc2c(=O)o1` [Example 22], for which, in data set [1], inhibition was half-maximal at 77 nM (IC50). Also, in data set [2], inhibition was half-maximal at 370 nM (IC50) and the Selectivity came out at 4.8.
With `CC(C)Oc1nc2cc(NC(=O)[C@H](Cc3ccccc3)NC(=O)OCc3ccccc3)ccc2c(=O)o1` [Example 24], the IC50 was 11 nM in data set [1] and 340 nM in data set [2]. Further, the Selectivity in data set [2] came out at 31.
In data set [1], `CC(C)Oc1nc2cc(NC(=O)[C@@H]3CCCN3C(=O)OC(C)(C)C)ccc2c(=O)o1` [Example 28] showed an IC50 of 35 nM. In addition, in data set [2], it took 130 nM to reach half-maximal inhibition (IC50) and the Selectivity worked out at 3.7.
The matching figures for `CC(C)Oc1nc2cc(NC(=O)[C@@H](NC(=O)[C@@H]3CCCN3C(=O)OCc3ccccc3)C(C)C)ccc2c(=O)o1` [Example 32]: 20 nM, 120 nM and 5.8.
For `O=C(Nc1ccc2c(=O)oc(C(F)(F)F)nc2c1)[C@@H]1CCCN1C(=O)OCc1ccccc1` [Example 20, 7-(N-carbobenzoxy-L-prolyl)amino-2-trifluoromethyl-4H-3,1-benzoxazin-4-one], in data set [1], the IC50 stood at 2200 nM. Besides, in data set [2], the IC50 is 17000 nM and the Selectivity came to 7.7.
Turning to `CC(C)Oc1nc2cc(NC(=O)[C@@H]3CCCN3C(=O)[C@H](C)NC(=O)OCc3ccccc3)ccc2c(=O)o1` [Example 31], 32 nM corresponded to half-maximal inhibition in data set [1] (IC50). For the same compound, in data set [2], the IC50 was determined as 180 nM and the Selectivity was 5.6.
`Cc1nc2cc(NC(=O)[C@H](Cc3ccccc3)NC(=O)OCc3ccccc3)ccc2c(=O)o1` [Example 37, 7-(N-carbobenzoxy-L-phenylalanyl)amino-2-methyl-4H-3,1-benzoxazin4-one] displayed an IC50 in data set [1] of 5100 nM. In addition, in data set [2], the IC50 came to 160000 nM and the Selectivity turned out to be 31.
For `CC(=O)N1CCC[C@H]1C(=O)Nc1ccc2c(=O)oc(OC(C)C)nc2c1` [Example 30] the same measures were 130 nM, 490 nM and 3.8.
`CC(C)Oc1nc2cc(NC(=O)[C@@H](NC(=O)[C@H](Cc3ccccc3)NC(=O)OCc3ccccc3)C(C)C)ccc2c(=O)o1` [Example 33]: the IC50 in data set [1] stood at 21 nM. Further, in data set [2], the IC50 is 180 nM and the Selectivity was 5.6.
`CC(C)Oc1nc2cc(NC(=O)[C@H](CCCCNC(=O)OCc3ccccc3)NC(=O)OCc3ccccc3)ccc2c(=O)o1` [Example 25]: the IC50 in data set [1] was determined as 14 nM. Moreover, in data set [2], the midpoint of inhibition, the IC50, lay at 580 nM and the Selectivity worked out at 41.
`CC(C)Oc1nc2cc(NC(=O)[C@H](CCC(=O)OCc3ccccc3)NC(=O)OCc3ccccc3)ccc2c(=O)o1` [Example 26]: the figures for the IC50 in data set [1] and in data set [2] were 26 nM and greater than 500 nM, respectively. In addition, the Selectivity in data set [2] is given as greater than 20.
The matching figures for `O=c1oc(C(F)(F)F)nc2ccccc12` [compound 1, reference compound]: 6200 nM, 680 nM and 0.10.
For `CC(C)Oc1nc2cc(NC(=O)[C@H](Cc3ccccc3)NC(=O)OC(C)(C)C)ccc2c(=O)o1` [Example 29] the same measures were 46 nM, 94 nM and 2.0.
For `CC(C)Oc1nc2cc(NC(=O)[C@@H](Cc3ccccc3)NC(=O)OCc3ccccc3)ccc2c(=O)o1` [Example 27] the same measures were 41 nM, 490 nM and 12.
Regarding `CC(C)Oc1nc2cc(NC(=O)[C@@H](NC(=O)OCc3ccccc3)C(C)C)ccc2c(=O)o1` [Example 23], the figures for the IC50 in data set [1] and in data set [2] were 24 nM and 160 nM, respectively. Moreover, the Selectivity in data set [2] came to 6.6.
The matching figures for `CC(C)Oc1nc2ccccc2c(=O)o1` [compound 2, reference compound]: 49 nM, 22 nM and 0.44.
